The assay concerns the target T1, human vasopressin V2 receptor subtype (Homo sapiens, UniProt P30518).
T1 construct: host or cells: CHO cells, stably transfected (pZeoSV vector)
Description: Vasopressin binding in CHO cell membranes expressing human vasopressin V2 subtype receptors ([3H]arginine vasopressin radioligand binding). To be noted: 100 nM. The procedure, abridged: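 Membranes from CHO cells stably expressing human V2 receptor (25 to 50 μg protein/well) incubated 60 min at room temperature with [3H]arginine vasopressin in Tris-HCl pH 7.4 buffer with MgCl2, BSA and protease inhibitors. Filtration, scintillation counting; percent inhibition at one concentration or IC50 (nM).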
T1 sequence (P30518 whole entry): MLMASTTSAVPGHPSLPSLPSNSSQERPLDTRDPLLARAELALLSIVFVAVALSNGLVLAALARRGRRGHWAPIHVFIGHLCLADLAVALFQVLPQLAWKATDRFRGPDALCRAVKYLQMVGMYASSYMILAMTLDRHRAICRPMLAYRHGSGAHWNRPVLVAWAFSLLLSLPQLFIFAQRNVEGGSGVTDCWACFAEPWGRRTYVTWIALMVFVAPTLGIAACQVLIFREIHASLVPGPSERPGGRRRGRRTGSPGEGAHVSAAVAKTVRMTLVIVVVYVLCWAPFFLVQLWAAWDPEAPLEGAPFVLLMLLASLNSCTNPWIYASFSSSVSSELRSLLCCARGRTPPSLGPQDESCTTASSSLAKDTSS
Regarding `CN(CCc1ccccn1)C(=O)c1ccc2n1Cc1ccccc1N(C(=O)c1ccc(-c3cccc4ccccc34)cc1Cl)C2` [Example 73, 10-[2-Chloro-4-(naphthalen-1-yl)benzoyl]-N-methyl-N-[2-(2-pyridinyl)ethyl]-10,11-dihydro-5H-pyrrolo[2,1-c][1,4]benzodiazepine-3-carboxamide], testing at 0.1 µM gave an inhibition of 16%.

As to `Cc1cc(C(=O)N2Cc3ccc(C(=O)N(C)CCc4ccccn4)n3Cc3ccccc32)ccc1-c1ccccc1C(F)(F)F` [Example 74, N-Methyl-10-{[2-methyl-2′-trifluoromethyl-[1,1′-biphenyl]-4-yl]carbonyl}-N-[2-(2-pyridinyl)ethyl]-10,11-dihydro-5H-pyrrolo[2,1-c][1,4]benzodiazepine-3-carboxamide], testing at 0.1 µM gave an inhibition of 1%. The figure for `COc1ccccc1-c1ccc(C(=O)N2Cc3ccc(C(=O)N4CCN(c5ccccn5)CC4)n3Cc3ccccc32)cc1C` [Example 75, {10-[(2′-Methoxy-2-methyl-[1,1′-biphenyl]-4-yl)carbonyl]-10,11-dihydro-5H-pyrrolo[2,1-c][1,4]benzodiazepin-3-yl}[4-(2-pyridinyl)-1-piperazinyl]methanone] is 9%; for `Cc1ccccc1-c1ccc(C(=O)N2Cc3ccc(C(=O)N4CCN(c5ccccn5)CC4)n3Cc3ccccc32)cc1C` [Example 76, {10-[(2,2′-Dimethyl-[1,1′-biphenyl]-4-yl)carbonyl]-10,11-dihydro-5H-pyrrolo[2,1-c][1,4]benzodiazepin-3-yl}[4-(2-pyridinyl)-1-piperazinyl]methanone] it is 21%; for `COc1cccc(-c2ccc(C(=O)N3Cc4ccc(C(=O)N5CCN(c6ccccn6)CC5)n4Cc4ccccc43)cc2C)c1` [Example 77, {10-[(3′-Methoxy-2-methyl-[1,1′-biphenyl]-4-yl)carbonyl]-10,11-dihydro-5H-pyrrolo[2,1-c][1,4]benzodiazepin-3-yl}[4-(2-pyridinyl)-1-piperazinyl]methanone] it is 10%. The same measure for `COc1ccccc1-c1ccc(C(=O)N2Cc3ccc(C(=O)N4CCN(c5ccccn5)CC4)n3Cc3ccccc32)cc1` [Example 78, {10-[(2′-Methoxy-[1,1′-biphenyl]-4-yl)carbonyl]-10,11-dihydro-5H-pyrrolo[2,1-c][1,4]benzodiazepin-3-yl}[4-(2-pyridinyl)-1-piperazinyl]methanone]: 8%; for `Cc1ccccc1-c1ccc(C(=O)N2Cc3ccc(C(=O)N4CCN(c5ccccn5)CC4)n3Cc3ccccc32)cc1` [Example 79, {10-[(2′-Methyl-[1,1′-biphenyl]-4-yl)carbonyl]-10,11-dihydro-5H-pyrrolo[2,1-c][1,4]benzodiazepin-3-yl}[4-(2-pyridinyl)-1-piperazinyl]methanone]: 10%; for `COc1cc(C(=O)N2Cc3ccc(C(=O)N4CCN(c5ccccn5)CC4)n3Cc3ccccc32)ccc1-c1ccccc1C` [Example 80, {10-[(2-Methoxy-2′-methyl-[1,1′-biphenyl]-4-yl)carbonyl]-10,11-dihydro-5H-pyrrolo[2,1-c][1,4]benzodiazepin-3-yl}[4-(2-pyridinyl)-1-piperazinyl]methanone]: 8%. The same measure for `COc1cc(-c2ccccc2C)c(Cl)cc1C(=O)N1Cc2ccc(C(=O)N3CCN(c4ccccn4)CC3)n2Cc2ccccc21` [Example 81, {10-[(6-Chloro-3-methoxy-2′-methyl-[1,1′-biphenyl]-4-yl)carbonyl]-10,11-dihydro-5H-pyrrolo[2,1-c][1,4]benzodiazepin-3-yl}[4-(2-pyridinyl)-1-piperazinyl]methanone]: 5%; for `COc1cccc(-c2cc(OC)c(C(=O)N3Cc4ccc(C(=O)N5CCN(c6ccccn6)CC5)n4Cc4ccccc43)cc2Cl)c1` [Example 82, {10-[(6-Chloro-3,3′-dimethoxy-[1,1′-biphenyl]-4-yl)carbonyl]-10,11-dihydro-5H-pyrrolo[2,1-c][1,4]benzodiazepin-3-yl}[4-(2-pyridinyl)-1-piperazinyl]methanone]: 8%.

Consider `COc1ccccc1-c1ccc(C(=O)N2Cc3ccc(C(=O)N4CCN(c5ccccn5)CC4)n3Cc3ccccc32)cc1OC` [Example 84, {10-[(2,2′-Dimethoxy-[1,1′-biphenyl]-4-yl)carbonyl]-10,11-dihydro-5H-pyrrolo[2,1-c][1,4]benzodiazepin-3-yl}[4-(2-pyridinyl)-1-piperazinyl]methanone], for which at 0.1 µM the inhibition was 14%. The figure for `COc1cccc(-c2ccc(C(=O)N3Cc4ccc(C(=O)N5CCN(c6ccccn6)CC5)n4Cc4ccccc43)cc2OC)c1` [Example 85, {10-[(2,3′-Dimethoxy-[1,1′-biphenyl]-4-yl)carbonyl]-10,11-dihydro-5H-pyrrolo[2,1-c][1,4]benzodiazepin-3-yl}[4-(2-pyridinyl)-1-piperazinyl]methanone] is 5%; for `O=C(c1ccc2n1Cc1ccccc1N(C(=O)c1ccc(-c3cccc4ccccc34)cc1Cl)C2)N1CCN(c2ccccn2)CC1` [Example 86, {10-[2-Chloro-4-(naphthalen-1-yl)benzoyl]-10,11-dihydro-5H-pyrrolo[2,1-c][1,4]benzodiazepin-3-yl}[4-(2-pyridinyl)-1-piperazinyl]methanone] it is 11%. The same measure for `Cc1cc(C(=O)N2Cc3ccc(C(=O)N4CCN(c5ccccn5)CC4)n3Cc3ccccc32)ccc1-c1ccccc1C(F)(F)F` [Example 87, (10-{[2-Methyl-2′-trifluoromethyl-[1,1′-biphenyl]-4-yl]carbonyl}-10,11-dihydro-5H-pyrrolo[2,1-c][1,4]benzodiazepin-3-yl)[4-(2-pyridinyl)-1-piperazinyl]methanone]: 4%; for `COc1ccccc1-c1ccc(C(=O)N2Cc3ccc(C(=O)NCc4ccncc4)n3Cc3ccccc32)cc1C` [Example 88, 10-[(2′-Methoxy-2-methyl-[1,1′-biphenyl]-4-yl)carbonyl]-N-(4-pyridinylmethyl)-10,11-dihydro-5H-pyrrolo[2,1-c][1,4]benzodiazepine-3-carboxamide]: 13%; for `Cc1ccccc1-c1ccc(C(=O)N2Cc3ccc(C(=O)NCc4ccncc4)n3Cc3ccccc32)cc1C` [Example 89, 10-[(2,2′-Dimethyl-[1,1′-biphenyl]-4-yl)carbonyl]-N-(4-pyridinylmethyl)-10,11-dihydro-5H-pyrrolo[2,1-c][1,4]benzodiazepine-3-carboxamide]: 15%. The same measure for `COc1cccc(-c2ccc(C(=O)N3Cc4ccc(C(=O)NCc5ccncc5)n4Cc4ccccc43)cc2C)c1` [Example 90, 10-[(3′-Methoxy-2-methyl-[1,1′-biphenyl]-4-yl)carbonyl]-N-(4-pyridinylmethyl)-10,11-dihydro-5H-pyrrolo[2,1-c][1,4]benzodiazepine-3-carboxamide]: 11%. For `COc1ccccc1-c1ccc(C(=O)N2Cc3ccc(C(=O)NCc4ccncc4)n3Cc3ccccc32)cc1` [Example 91, 10-[(2′-Methoxy-[1,1′-biphenyl]-4-yl)carbonyl]-N-(4-pyridinylmethyl)-10,11-dihydro-5H-pyrrolo[2,1-c][1,4]benzodiazepine-3-carboxamide], the inhibition (in general, how much of the control response was suppressed) at 0.1 µM amounted to 10%.
